Key:
Kir1.1 (ROMK1) = Kir1.1 (ROMK1) (Homo sapiens (Human), UniProt P48048); test: Electrophysiology Assay (whole cell voltage clamp, IonWorks Quattro); assay type: cell-based; conditions: Chinese hamster ovary cells stably expressing Kir1.1; block during voltage step to 0 mV
Protocol: Block of Kir1.1 (ROMK1) currents was examined by whole cell voltage clamp (Hamill et. al. Pfluegers Archives 391:85-100 (1981)) using the IonWorks Quattro automated electrophysiology platform (Molecular Devices, Sunnyvale, Calif.). Chinese hamster ovary cells stably expressing Kir1.1 channels were maintained in T-75 flasks in cell culture media in a humidified 10% CO2 incubator at 37° C. Prior to an experiment, Kir1.1 expression was induced by overnight incubation with 1 mM sodium butyrate. On the day of the experiment, cells were dissociated with 2.5 mL of Versene (Invitrogen 15040-066) for approximately 6 min at 37° C. and suspended in 10 mL of bath solution containing (in mM): 150 NaCl, 10 KCl, 2.7 CaCl2, 0.5 MgCl2, 5 HEPES, pH 7.4. After centrifugation, the cell pellet was resuspended in approximately 4.0 mL of bath solution and placed in the IonWorks instrument. The intracellular solution consisted of (in mM): 80 K gluconate, 40 KCl, 20 KF, 3.2 MgCl2, 3 EGTA, 5 Hepes, pH 7.4. Electrical access to the cytoplasm was achieved by perforation in 0.13 mg/mL amphotericin B for 4 min. Amphotericin B (Sigma A-4888) was prepared as a 40 mg/mL solution in DMSO. Voltage protocols and current recordings were performed using the IonWorks HT software/hardware system. Currents were sampled at 1 kHz. No correction for liquid junction potentials was used. The test pulse, consisting of a 100 ms step to 0 mV from a holding potential of −70 mV, followed by a 100 ms voltage ramp from −70 mV to +70 mV, was applied before and after a 6 min compound incubation period. Test compounds were prepared by diluting DMSO stock solutions into the bath solution at 3× the final concentration and placed in the instrument in 96-well polypropylene plates. Current amplitudes were measured using the IonWorks software. To assess compound potency, the fractional block during the voltage step to 0 mV was calculated in Microsoft Excel (Microsoft, Redmond, Calif.), and dose-response curves were fitted with Igor Pro 4.0 (WaveMetrics, Lake Oswego, Oreg.). Normally, a control compound is included to support that the assay is giving consistent results compared to previous measurements, although the control is not required to obtain the results for the test compounds.

hROMK (hKir1.1) = hROMK (hKir1.1) (Homo sapiens (Human), UniProt P48048); test: Thallium Flux Assay (ROMK channel functional thallium flux assay, FLIPR-Tetra); assay type: cell-based; conditions: HEK293 cells stably expressing hROMK
Protocol: Cell Culture Conditions— HEK293 cells stably expressing hROMK (hKir1.1) were grown at 37° C. in a 10% CO2 humidified incubator in complete growth media: Dulbecco's Modified Eagle Medium supplemented with non-essential amino acids, Penicillin/Streptomycin/Glutamine, G418 and FBS. At >80% confluency, aspirate the media from the flask and rinse with 10 mL Calcium/Magnesium-free PBS. Add 5 mL of 1× trypsin (prepared in Ca/Mg Free PBS) to T-225 flask and return flask to 37° C./CO2 incubator for 2-3 minutes. To dislodge the cell, gently bang the side of the flask with your hand. Triturate the cells completely and then transfer the cells to 25 mL complete media. Centrifuge at 1,500 rpm for 6 min followed by resuspension in complete growth media and determine cell concentration. For typical re-seeding, 4E6 cells/T-225 flask will attain >80% confluency in 4 days. Under ideal growth conditions and appropriate tissue culture practices, this cell line is stable for 40-45 passages.
FluxOR Kit Components (Invitrogen F10017)
• FluxOR™ Reagent (Component A) • FluxOR™ Assay Buffer (Component B)—10× Concentrate • PowerLoad™ Concentrate (Component C)—100× Concentrate • Probenecid (Component D)—Lyophilized sample is kept at −20° C. Water soluble, 100×after solubilization in 1 mL water. Store at 4° C. • FluxOR™ Chloride-free Buffer (Component E)—5× Concentrate • Potassium sulfate (K2SO4) Concentrate (Component F)—125 mM in water. Store at 4° C. • Thallium sulfate (Tl2SO4) Concentrate (Component G)—50 mM in water. Store at 4° C. • DMSO (dimethyl sulfoxide, Component H)—1 mL (100%) Reagent Preparation: FluxOR Working Solutions • 1000× FluxOR™ Reagent: Reconstitute a vial of component A in 100 μl DMSO; Mix well; Store 10 μl aliquots at −20° C. • 1× FluxOR™ Assay Buffer: Dilute Component B 10-fold with water; Adjust pH to 7.4 with Hepes/NaOH; Filter and store at 4° C. • Probenecid/Assay Buffer: 100 mL of 1× FluxOR™ Assay Buffer; 1 mL of reconstituted component D; Store at 4° C. • Loading Buffer (per microplate): 10 μl 1000× FluxOR™ Reagent; 100 μl component C; 10 mL Probenecid/Assay Buffer • Compound Buffer (per microplate): 20 mL Probenecid/Assay Buffer; 0.3 mM ouabain (10 mM ouabain in water can be stored in amber bottle/aluminum foil at room temperature); Test compound • 1× FluxOR™ Chloride-Free Buffer: Prepare 1× working solution in water. Can be stored at room temperature • Stimulant Buffer (prepared at 5× final concentration in 1× FluxOR™ Chloride-Free Buffer): 7.5 mM Thallium sulfate and 0.75 mM Potassium sulfate (to give a final assay concentration of 3 mM Thallium 0.3 mM Potassium). Store at 4° C. when not in use. If kept sterile, this solution is good for months.
Assay Protocol—The ROMK channel functional thallium flux assay is performed in 384 wells, using the FLIPR-Tetra instrument. HEK-hKir1.1 cells are seeded in Poly-D-Lysine microplates and kept in a 37° C.-10% CO2 incubator overnight. On the day of the experiment, the growth media is replaced with the FluxOR™ reagent loading buffer and incubated, protected from light, at ambient temperature (23-25° C.) for 90 min. The loading buffer is replaced with assay buffer±test compound followed by 30 min incubation at ambient temperature, where the Thallium/Potassium stimulant is added to the microplate.
• 1. Seed HEK-hKir1.1 cells ([…] at 20,000 cells/well) in 384-well PDL coated Microplates • 2. Allow cells to adhere overnight in humidified 37° C./10% CO2 incubator • 3. Completely remove cell growth media from microplate and replace with 25 μl loading buffer • 4. Incubate Microplate at room temperature, protected form light, for 90 min • 5. Remove loading buffer and replace with 25 μl 1× Assay Buffer±test compound. • 6. Incubate microplate at room temperature, protected from light, for 30 min • 7. At FLIPR-Tetra 384: Add stimulant (Thallium/Potassium) solution to microplate and monitor fluorescence. Excitation=400 nm, Emission=460 & 580 nm. Collect data for 10 min.

Kir1.1 (ROMK1), sequence (P48048 whole entry, species assumed): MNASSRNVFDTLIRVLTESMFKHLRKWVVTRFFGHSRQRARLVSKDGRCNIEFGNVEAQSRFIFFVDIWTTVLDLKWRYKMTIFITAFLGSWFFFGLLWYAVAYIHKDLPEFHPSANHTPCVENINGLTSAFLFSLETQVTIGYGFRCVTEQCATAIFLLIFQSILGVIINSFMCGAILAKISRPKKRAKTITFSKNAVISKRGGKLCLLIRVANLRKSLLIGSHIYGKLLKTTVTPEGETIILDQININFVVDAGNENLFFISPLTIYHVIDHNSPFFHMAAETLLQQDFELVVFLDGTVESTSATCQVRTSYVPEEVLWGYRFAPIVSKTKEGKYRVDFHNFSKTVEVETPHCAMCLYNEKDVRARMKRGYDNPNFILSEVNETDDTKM
hROMK (hKir1.1), sequence (P48048 whole entry): as the sequence (P48048 whole entry, species assumed) above

| Compound | IC50 (Kir1.1 (ROMK1)) [nM] | IC50 (hROMK (hKir1.1)) [nM] |
| --- | --- | --- |
| Cc1c([C@H](O)CN2CCC3(CC2)CCN(C2=CC(=O)OC2)C3=O)ccc2c1COC2=O [Example 21] | 390 | 370 |
| Cc1c([C@@H](O)CN2CCC3(CC2)CCN(C2=C(Cl)C(=O)OC2)C3=O)ccc2c1COC2=O [Example 25] | 10 | 10 |
| Cc1c([C@@H](O)CN2CCC3(CCCN(C4=CC(=O)OC4)C3=O)CC2)ccc2c1COC2=O [Example 23] | 10 | 20 |
| Cc1c([C@@H](O)CN2CCC3(CC2)CCN(C2=C(F)C(=O)OC2)C3=O)ccc2c1COC2=O [Example 22] | 4 | 30 |
| Cc1c([C@@H](O)CN2CCC3(CCCN(C4=CC(=O)OC4)C3)CC2)ccc2c1COC2=O [Example 24] | 620 | 240 |
| O=C1C=C(N2CCC3(CCN(CCc4ccc5c(c4)COC5=O)CC3)C2=O)CO1 [Example 3] | 70 | 290 |
| Cc1c([C@@H](O)CN2CCC3(CC2)CC(C)N(C2=CC(=O)OC2)C3=O)ccc2c1COC2=O (stereo partly drawn) [Example 6, 8-((R)-2-Hydroxy-2-(4-methyl-1-oxo-1,3-dihydroisobenzofuran-5-yl)ethyl)-3-methyl-2-(5-oxo-2,5-dihydrofuran-3-yl)-2,8-diazaspiro[4.5]decan-1-one] |  | 30 |
| Cc1c([C@@H](O)CN2C3CCC2CC2(CC(C)N(C4=CC(=O)OC4)C2=O)C3)ccc2c1COC2=O (single isomer, unassigned) [Example 40] |  | 20 |
| CC1=C(N2C(=O)C3(CCN(C[C@H](O)c4ccc5c(c4C)COC5=O)CC3)CC2C)COC1=O (single isomer, unassigned) [Example 30] | 20 | 20 |
| CC1=C(N2CCC3(CCN(C[C@H](O)c4ccc5c(c4C)COC5=O)CC3)C2=O)COC1=O [Example 7, 8-[(2R)-2-hydroxy-2-(4-methyl-1-oxo-1,3-dihydro-2-benzofuran-5-yl)ethyl]-2-(4-methyl-5-oxo-2,5-dihydrofuran-3-yl)-2,8-diazaspiro[4.5]decan-1-one] | 10 | 20 |
| CC1=C(N2CCC3(CCN(C[C@H](O)c4ccc5c(c4C)COC5=O)CC3F)C2=O)COC1=O (single isomer, unassigned) [Example 28] |  | 190 |
| CC1=C(N2C(=O)C3(CCN(C[C@H](O)c4ccc5c(c4C)COC5=O)CC3)CC2C)COC1=O (single isomer, unassigned) [Example 29] |  | 70 |
| CC1=C(N2CCC3(CCN(C[C@H](O)c4ccc5c(c4C)COC5=O)CC3F)C2=O)COC1=O (single isomer, unassigned) [Example 27] |  | 210 |
| Cc1c([C@@H](O)CN2CCC3(CC2)C[C@@H](C)N(C2=CC(=O)OC2)C3=O)ccc2c1COC2=O [Example 6A] |  | 20 |

Results, then the molecule that gave them:

| IC50 (Kir1.1 (ROMK1)) [nM] | IC50 (hROMK (hKir1.1)) [nM] | Compound |
| --- | --- | --- |
| 60 | 350 | O=C1C=C(N2CCC3(CCN(CC4OCCc5c4ccc4c5COC4=O)CC3)C2=O)CO1 (racemic) [Example 52] |
| 3 | 10 | CC1=C(N2CCC3(CCN(CC(O)c4ccc5c(c4Cl)COC5=O)CC3)C2=O)COC1=O (single isomer, unassigned) [Example 79] |
| 30 | 20 | Cc1c([C@@H](O)CN2CCC3(CC2)CC(C2CC2)N(C2=CC(=O)OC2)C3=O)ccc2c1COC2=O (single isomer, unassigned) [Example 69] |
| 50 | 40 | COC1CN(C[C@H](O)c2ccc3c(c2C)COC3=O)CCC12CCN(C1=C(C)C(=O)OC1)C2=O (stereo partly shown) [Example 83] |
| 10 | 10 | CC1=C(N2CCC3(CCN(CC(O)c4ccc5c(c4C4CC4)COC5=O)CC3)C2=O)COC1=O (single isomer, unassigned) [Example 76] |
| 10 | 30 | CCc1c(C(O)CN2CCC3(CC2)CCN(C2=C(C)C(=O)OC2)C3=O)ccc2c1COC2=O (single isomer, unassigned) [Example 75] |
| 10 | 50 | CC1=C(N2CCC3(CCN(CC(O)c4ccc5c(c4F)COC5=O)CC3)C2=O)COC1=O (single isomer, unassigned) [Example 80] |
| 20 | 10 | CCC1CC2(CCN(C[C@H](O)c3ccc4c(c3C)COC4=O)CC2)C(=O)N1C1=CC(=O)OC1 (single isomer, unassigned) [Example 66] |
|  | 100 | CNC(CN1CCC2(CC1)CCN(C1=C(C)C(=O)OC1)C2=O)c1ccc2c(c1C)COC2=O (stereo not shown) [Example 60, 8-[2-(methylamino)-2-(4-methyl-1-oxo-1,3-dihydro-2-benzofuran-5-yl)ethyl]-2-(4-methyl-5-oxo-2,5-dihydrofuran-3-yl)-2,8-diazaspiro[4.5]decan-1-one] |
|  | 30 | CCO[C@@H](CN1CCC2(CC1)CCN(C1=C(C)C(=O)OC1)C2=O)c1ccc2c(c1C)COC2=O [Example 50, 8-[(2R)-2-ethoxy-2-(4-methyl-1-oxo-1,3-dihydro-2-benzofuran-5-yl)ethyl]-2-(4-methyl-5-oxo-2,5-dihydrofuran-3-yl)-2,8-diazaspiro[4.5]decan-1-one] |
| 20 | 310 | CO[C@@H](CN1CCC2(CC1)CCN(C1=CC(=O)OC1)C2=O)c1ccc2c(c1C)COC2=O [Example 51, 8-[(2R)-2-methoxy-2-(4-methyl-1-oxo-1,3-dihydro-2-benzofuran-5-yl)ethyl]-2-(5-oxo-2,5-dihydrofuran-3-yl)-2,8-diazaspiro[4.5]decan-1-one] |
|  | 30 | CC1=C(N2CCC3(CCN(C[C@@H](O)c4cc5c(cc4C)C(=O)OC5)CC3)C2=O)COC1=O [Example 37] |

From patent US9206198B2, “Inhibitors of the renal outer medullary potassium channel” (Merck Sharp & Dohme Corp., priority 2012, dated 2015)
